{"source": "paper PMC6422238", "about": "“Absence of a human ortholog of rodent Kupffer cell galactose-binding receptor encoded by the CLEC4f gene” (Glycobiology, 2019)", "key": {"Bovine CLEC4f protein": {"molecular_target": "T1, Bovine CLEC4f protein (Bos taurus, UniProt A0AAA9RVQ7)", "T1 construct": "C-terminal fragment of the extracellular domain (neck + CRD), E. coli BL21(DE3) inclusion bodies, renatured; 35 kDa calculated; trimer; borders only in supplement", "T1 sequence (A0AAA9RVQ7 274-591 limits assumed)": "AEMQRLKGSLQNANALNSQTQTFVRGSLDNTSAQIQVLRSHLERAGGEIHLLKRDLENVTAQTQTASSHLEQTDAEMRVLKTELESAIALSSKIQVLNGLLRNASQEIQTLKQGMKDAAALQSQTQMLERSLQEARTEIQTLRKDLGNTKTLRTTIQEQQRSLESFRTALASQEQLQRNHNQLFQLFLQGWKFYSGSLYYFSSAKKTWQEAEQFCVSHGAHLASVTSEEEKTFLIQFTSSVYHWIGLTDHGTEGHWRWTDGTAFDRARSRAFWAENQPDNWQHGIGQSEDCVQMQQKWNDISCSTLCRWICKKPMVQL", "assay": "affinity chromatography on galactose-Sepharose", "assay_type": "binding", "settings": "immobilised galactose (divinyl sulfone coupling); 25 mM CaCl2, 150 mM NaCl, pH 7.8; Ca2+-dependent, eluted with EDTA"}, "[1]": {"molecular_target": "T2, Murine CLEC4f protein; murine Kupffer cell receptor (Mus musculus, UniProt P70194)", "T2 construct": "fluorescein isothiocyanate labelled", "T2 sequence (P70194 70-548 limits assumed)": "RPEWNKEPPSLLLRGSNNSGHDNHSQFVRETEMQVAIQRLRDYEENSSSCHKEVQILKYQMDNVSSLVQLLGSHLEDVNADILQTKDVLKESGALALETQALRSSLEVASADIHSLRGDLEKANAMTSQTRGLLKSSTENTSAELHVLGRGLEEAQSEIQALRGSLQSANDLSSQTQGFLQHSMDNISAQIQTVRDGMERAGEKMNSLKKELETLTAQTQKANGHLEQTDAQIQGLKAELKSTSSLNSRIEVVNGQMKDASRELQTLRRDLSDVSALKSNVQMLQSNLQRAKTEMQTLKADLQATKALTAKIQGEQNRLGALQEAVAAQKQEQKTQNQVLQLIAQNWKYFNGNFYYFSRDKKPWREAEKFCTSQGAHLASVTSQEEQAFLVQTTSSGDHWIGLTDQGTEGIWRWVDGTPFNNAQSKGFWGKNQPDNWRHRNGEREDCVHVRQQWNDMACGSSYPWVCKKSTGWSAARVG", "assay": "affinity re-purification of the labelled protein on galactose-Sepharose", "assay_type": "binding", "settings": "immobilised galactose; 25 mM CaCl2, 150 mM NaCl, pH 7.8; eluted with EDTA; fluorescein-labelled protein"}}}
{"smiles": "OC[C@H]1OC(O)[C@H](O)[C@@H](O)[C@H]1O", "note": "(some centres unmarked) [galactose]", "values": [{"measurement": "affinity chromatography on galactose-Sepharose", "setting": "Bovine CLEC4f protein", "result": "confirming that it has galactose-binding activity"}, {"measurement": "affinity re-purification of the labelled protein on galactose-Sepharose", "setting": "[1]", "result": "the chimpanzee, bovine and murine proteins all bind to galactose"}]}
